{"source": "paper PMC8507696", "about": "“Effect of Peptide Receptor Radionuclide Therapy in Combination with Temozolomide against Tumor Angiogenesis in a Glioblastoma Model” (Cancers, 2021)", "key": {"integrin αvβ3": {"tested_on": "integrin αvβ3", "assay": "anti-integrin αvβ3 immunohistochemical staining of dissected tumor tissues", "format": "in vivo, BALB/c nu/nu nude mice", "conditions": "TMZ 5 mgkg^−1, after 2 weeks", "method": "Tumor tissues were harvested on day 14 after the treatment and immediately fixed in 10% formalin solution. Frozen tissue sections (5 μm) were placed onto glass slides. The tumor sections were stained with anti-integrin αvβ3 rabbit antibody (1:1000, Millipore) at 4 °C for 16 h. The sections were then incubated with anti-rabbit secondary antibody (biotinylated) at room temperature for 1 h. The detection system (Vector Laboratories, Burlingame, CA, USA) was applied according to the manufacturer’s instructions. The nuclei were counter-stained with hematoxylin (Invitrogen, Carlsbad, CA, USA). For assessment of tumor vascularization, mouse anti-human CD31 monoclonal antibody (diluted 1:40, Dako) staining was performed on acetone-fixed cryosections using a blood vessel staining kit (ECM590, Millipore Ireland, Cork, Ireland). For another assessment of integrin αvβ3 receptors in dissected tumor tissues, anti-integrin αvβ3 (SC-7312, Santa Cruz Biotech, Santa Cruz, CA, USA) was used. Primary antibody against γH2AX (diluted 1:50, Abcam) was applied to acetone-fixed cryosections and incubated overnight. […] Images were acquired using Axioscope A1 fluorescent microscope (Carl Zeiss, Jena, Germany) or AxioCam MRc5 (Carl Zeiss, Jena, Germany) and analyzed with Axiovision software (version 4.4, Carl Zeiss Meditec, Jena, Germany). […]"}, "U87-MG xenografts": {"tested_on": "U87-MG xenografts", "assay": "combination therapy of TMZ with 188Re-IDA-D-[c(RGDfK)]2: tumor volume", "format": "in vivo, BALB/c nu/nu nude mice", "conditions": "TMZ 2 or 5 mgkg^−1 once a week for 14 days, n = 4", "method": "A suspension of human glioblastoma U87-MG cells was prepared (5 × 10^6 cellsmL^−1). A total of 0.1 mL of cell suspension was injected subcutaneously into the right flank of a 6–7-week-old male BALB/c nu/nu nude mice (20–25 g, Orient Bio Inc., Seongnam, Korea). In the case of pharmacokinetic studies of ^99mTc-IDA-D-[c(RGDfK)]2, we used tumor xenograft mice whose tumor cells were inoculated in the right shoulder and performed the SPECT imaging study when tumor volume reached 68.7 ± 18.8 mm^3 at 10 days after injection of U87-MG cells. Evaluations of integrin-targeted blocking and radiotherapy treatment on the growth of U87-MG xenografts were carried out when tumor volume reached 59.4 ± 14.9 mm^3 (For authentic “cold” Re-peptide (^185/187Re-IDA-D-[c(RGDfK)]2) treatment) and 66.2 ± 15.3 mm^3 (For radiotherapy (^188Re-IDA-D-[c(RGDfK)]2) treatment) at 10 days after injection of U87-MG cells. Experiments with vehicle, negative control peptide (^188Re-IDA-D-[c(RADfK)]2) or ^188Re-IDA-D-[c(RGDfK)]2 treatments (11.1 MBq) in U87-MG xenografts were carried out when tumor volume reached 40.3 ± 14.8 mm^3 at 9 days after injection of U87-MG cells. […]\nFor caliper measurements, tumor length (longitudinal diameter) and tumor width (transverse diameter) were measured, and the tumor volume was calculated according to the following formula: tumor volume = (length × width^2)/2."}}, "data": [{"molecule": "Cn1nnc2c(C(N)=O)ncn2c1=O", "note": "[TMZ, Temozolomide]", "values": [{"measurement": "integrin expression in tumor tissues", "setting": "integrin αvβ3", "value": "reduced integrin expression"}, {"measurement": "tumor size compared with saline treatment", "setting": "U87-MG xenografts", "value": "significantly reduced tumor size"}]}]}
